Nine compounds from patent US9738634B2, “Heterocyclic amide compound and herbicide” (SYNGENTA PARTICIPATIONS AG, priority 2013, dated 2017) can be followed below.

Common to all, as to assay type: in vivo
For series [1], the system named is barnyard grass. The series can be described thus: Test Example 1: weedkilling efficacy, preemergent weed treatment in the submerged state; A: barnyard grass. In a few lines: (§1)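 Emulsion diluted with water to the specified per-hectare dosage is applied onto flood water (4 cm) over alluvial soil on the sowing day, with barnyard grass, bulrush and pondweed seeded and rice (2.5-leaf) transplanted; plants grow at 25–30 °C and are rated at 3 weeks.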

Series [2] concerns transplanted rice. The series can be described thus: Test Example 1: preemergent weed treatment in the submerged state, effect on crop; a: transplanted rice. In a few lines:
as §1

The test system of series [3] is barnyard grass. The series can be described thus: Test Example 2: weedkilling efficacy, growth period weed treatment in the submerged state; A: barnyard grass. The procedure, abridged:
(§2)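 First, alluvial soil in pots is flooded to 4 cm and mixed seed is sown. Next, plants grow in a greenhouse at 25 to 30° C until the 1-2 leaf stage. Then diluted emulsion is applied onto the water surface at the given g/ha rate, and injury is assessed after 3 weeks.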

Series [4] concerns bulrush. In words: Test Example 1: weedkilling efficacy, preemergent weed treatment in the submerged state; B: bulrush. In a few lines:
as §1

In series [5] the test system is oval-leafed pondweed. The series can be described thus: Test Example 2: weedkilling efficacy, growth period weed treatment in the submerged state; C: oval-leafed pondweed. In a few lines:
as §2

In series [6] the test system is bulrush. The series can be described thus: Test Example 2: weedkilling efficacy, growth period weed treatment in the submerged state; B: bulrush. The procedure, abridged:
as §2

Series [7] relates to oval-leafed pondweed. In words: Test Example 1: weedkilling efficacy, preemergent weed treatment in the submerged state; C: oval-leafed pondweed. The procedure, abridged:
as §1

With `CC(C)(C(=O)Nc1cc(Cl)cc(Cl)n1)N1COCN(c2ccccc2)C1=S` [A-2-18], the “A: barnyard grass, weed kill grade” value in series [1] (treatment dosage 320 g/ha) is on record as 5 (weed kill ratio 90% or more, (practically complete withering)). The “a: transplanted rice, effect on crop grade” value (shortened to “a: transplanted rice, effect”) in series [2] (treatment dosage 320 g/ha) is reported as 0 (weed kill ratio 5% or less (practically no effect)). Also, the “A (barnyard grass) weedkilling efficacy grade” value in series [3] (treatment dosage 320 g/ha) is 5 (weed kill ratio 90% or more, (practically complete withering)). Besides, the “B: bulrush, weed kill grade” value in series [4] (treatment dosage 320 g/ha) is on record as 5 (weed kill ratio 90% or more, (practically complete withering)). Moreover, the “C (oval-leafed pondweed) weedkilling efficacy grade” value in series [5] (treatment dosage 320 g/ha) is on record as 5 (weed kill ratio 90% or more, (practically complete withering)). In addition, the “B (bulrush) weedkilling efficacy grade” value in series [6] (treatment dosage 320 g/ha) is 5 (weed kill ratio 90% or more, (practically complete withering)). Further, the “C: oval-leafed pondweed, weed kill grade” value in series [7] (treatment dosage 320 g/ha) is listed as 5 (weed kill ratio 90% or more, (practically complete withering)).

In the case of `CC(C)(C(=O)Nc1cc(Cl)cnc1Cl)N1COCN(c2ccccc2)C1=O` [A-3-06], in series [1] (treatment dosage 252 g/ha), the “A: barnyard grass, weed kill grade” value is 5 (weed kill ratio 90% or more, (practically complete withering)). The “a: transplanted rice, effect” value in series [2] (treatment dosage 252 g/ha) was 1 (weed kill ratio 5% or more, less than 20%). Moreover, in series [3] (treatment dosage 252 g/ha), the “A (barnyard grass) weedkilling efficacy grade” value is listed as 3 (weed kill ratio 40% or more, less than 70%). Moreover, the “B: bulrush, weed kill grade” value in series [4] (treatment dosage 252 g/ha) was 5 (weed kill ratio 90% or more, (practically complete withering)). In addition, in series [5] (treatment dosage 252 g/ha), the “C (oval-leafed pondweed) weedkilling efficacy grade” value is reported as 2 (weed kill ratio 20% or more, less than 40%). Further, in series [6] (treatment dosage 252 g/ha), the “B (bulrush) weedkilling efficacy grade” value was 4 (weed kill ratio 70% or more, less than 90%). The “C: oval-leafed pondweed, weed kill grade” value in series [7] (treatment dosage 252 g/ha) is reported as 4 (weed kill ratio 70% or more, less than 90%).

Take `CC1=C(c2ccccc2)C(=O)N(C(C)(C)C(=O)Nc2cc(Oc3ccccc3)cc(Cl)n2)CO1` [B-2-48]: the “A (barnyard grass) weedkilling efficacy grade” value in series [1] (treatment dosage 266 g/ha) was 5 (weed kill ratio 90% or more, (practically complete withering)); in series [3] (treatment dosage 266 g/ha), 0 (weed kill ratio 5% or less (practically no effect)). In series [2] (treatment dosage 266 g/ha), the “a (transplanted rice) effect on crop grade” value is 0 (weed kill ratio 5% or less (practically no effect)). Further, the “B (bulrush) weedkilling efficacy grade” value is on record as 5 (weed kill ratio 90% or more, (practically complete withering)) in series [4] (treatment dosage 266 g/ha) and 2 (weed kill ratio 20% or more, less than 40%) in series [6] (treatment dosage 266 g/ha). The “C (oval-leafed pondweed) weedkilling efficacy grade” value in series [5] (treatment dosage 266 g/ha) is 0 (weed kill ratio 5% or less (practically no effect)); in series [7] (treatment dosage 266 g/ha) it was 4 (weed kill ratio 70% or more, less than 90%).

With `CCOc1cc(C(F)(F)F)cc(NC(=O)C(C)(C)N2COCN(c3ccccc3)C2=O)n1` [A-2-60], the “A: barnyard grass, weed kill grade” value in series [1] (treatment dosage 320 g/ha) is 5 (weed kill ratio 90% or more, (practically complete withering)). In series [2] (treatment dosage 320 g/ha), the “a: transplanted rice, effect” value is 2 (weed kill ratio 20% or more, less than 40%). The “A (barnyard grass) weedkilling efficacy grade” value in series [3] (treatment dosage 320 g/ha) is on record as 5 (weed kill ratio 90% or more, (practically complete withering)). Further, the “B: bulrush, weed kill grade” value in series [4] (treatment dosage 320 g/ha) was 5 (weed kill ratio 90% or more, (practically complete withering)). Further, in series [5] (treatment dosage 320 g/ha), the “C (oval-leafed pondweed) weedkilling efficacy grade” value is 5 (weed kill ratio 90% or more, (practically complete withering)). In addition, in series [6] (treatment dosage 320 g/ha), the “B (bulrush) weedkilling efficacy grade” value is recorded as 5 (weed kill ratio 90% or more, (practically complete withering)). Further, in series [7] (treatment dosage 320 g/ha), the “C: oval-leafed pondweed, weed kill grade” value is 5 (weed kill ratio 90% or more, (practically complete withering)).

`CC(C)(C(=O)Nc1cncc(C(F)(F)F)c1)N1COCN(c2ccccc2)C1=O` [A-3-10]: the “A: barnyard grass, weed kill grade” value in series [1] (treatment dosage 252 g/ha) is 5 (weed kill ratio 90% or more, (practically complete withering)). In addition, the “a: transplanted rice, effect” value in series [2] (treatment dosage 252 g/ha) is on record as 1 (weed kill ratio 5% or more, less than 20%). Further, in series [3] (treatment dosage 252 g/ha), the “A (barnyard grass) weedkilling efficacy grade” value is 3 (weed kill ratio 40% or more, less than 70%). The “B: bulrush, weed kill grade” value in series [4] (treatment dosage 252 g/ha) is on record as 5 (weed kill ratio 90% or more, (practically complete withering)). For the same compound, in series [5] (treatment dosage 252 g/ha), the “C (oval-leafed pondweed) weedkilling efficacy grade” value was 4 (weed kill ratio 70% or more, less than 90%). Further, in series [6] (treatment dosage 252 g/ha), the “B (bulrush) weedkilling efficacy grade” value was 5 (weed kill ratio 90% or more, (practically complete withering)). In addition, the “C: oval-leafed pondweed, weed kill grade” value in series [7] (treatment dosage 252 g/ha) is given as 5 (weed kill ratio 90% or more, (practically complete withering)).

Consider `COc1cccc(NC(=O)C(C)(C)N2COCN(c3ccccc3)C2=O)n1` [A-2-52], for which the “A: barnyard grass, weed kill grade” value in series [1] (treatment dosage 252 g/ha) was 5 (weed kill ratio 90% or more, (practically complete withering)). In addition, in series [2] (treatment dosage 252 g/ha), the “a: transplanted rice, effect” value is 1 (weed kill ratio 5% or more, less than 20%). Further, the “A (barnyard grass) weedkilling efficacy grade” value in series [3] (treatment dosage 252 g/ha) was 4 (weed kill ratio 70% or more, less than 90%). Besides, the “B: bulrush, weed kill grade” value in series [4] (treatment dosage 252 g/ha) was 5 (weed kill ratio 90% or more, (practically complete withering)). Also, the “C (oval-leafed pondweed) weedkilling efficacy grade” value in series [5] (treatment dosage 252 g/ha) was 2 (weed kill ratio 20% or more, less than 40%). In addition, the “B (bulrush) weedkilling efficacy grade” value in series [6] (treatment dosage 252 g/ha) is listed as 5 (weed kill ratio 90% or more, (practically complete withering)). Also, the “C: oval-leafed pondweed, weed kill grade” value in series [7] (treatment dosage 252 g/ha) is reported as 5 (weed kill ratio 90% or more, (practically complete withering)).

On to `Cc1cc(NC(=O)C(C)(C)N2COCN(c3ccccc3)C2=O)nc(C(F)(F)F)c1` [A-2-57], for which the “A: barnyard grass, weed kill grade” value in series [1] (treatment dosage 320 g/ha) is recorded as 5 (weed kill ratio 90% or more, (practically complete withering)). Moreover, in series [2] (treatment dosage 320 g/ha), the “a: transplanted rice, effect” value was 0 (weed kill ratio 5% or less (practically no effect)). For the same compound, the “A (barnyard grass) weedkilling efficacy grade” value in series [3] (treatment dosage 320 g/ha) is recorded as 5 (weed kill ratio 90% or more, (practically complete withering)). Also, in series [4] (treatment dosage 320 g/ha), the “B: bulrush, weed kill grade” value was 5 (weed kill ratio 90% or more, (practically complete withering)). In addition, in series [5] (treatment dosage 320 g/ha), the “C (oval-leafed pondweed) weedkilling efficacy grade” value is reported as 5 (weed kill ratio 90% or more, (practically complete withering)). For the same compound, the “B (bulrush) weedkilling efficacy grade” value in series [6] (treatment dosage 320 g/ha) is on record as 5 (weed kill ratio 90% or more, (practically complete withering)). The “C: oval-leafed pondweed, weed kill grade” value in series [7] (treatment dosage 320 g/ha) is reported as 5 (weed kill ratio 90% or more, (practically complete withering)).

For the compound `CC(C)(C(=O)Nc1cc(Cl)cc(Cl)n1)N1COCN(c2ccccc2Cl)C1=O` [A-6-06], the “A: barnyard grass, weed kill grade” value in series [1] (treatment dosage 252 g/ha) is 5 (weed kill ratio 90% or more, (practically complete withering)). For the same compound, the “a: transplanted rice, effect” value in series [2] (treatment dosage 252 g/ha) was 2 (weed kill ratio 20% or more, less than 40%). Also, in series [3] (treatment dosage 252 g/ha), the “A (barnyard grass) weedkilling efficacy grade” value is 5 (weed kill ratio 90% or more, (practically complete withering)). Besides, in series [4] (treatment dosage 252 g/ha), the “B: bulrush, weed kill grade” value is 5 (weed kill ratio 90% or more, (practically complete withering)). Also, in series [5] (treatment dosage 252 g/ha), the “C (oval-leafed pondweed) weedkilling efficacy grade” value is reported as 5 (weed kill ratio 90% or more, (practically complete withering)). Further, in series [6] (treatment dosage 252 g/ha), the “B (bulrush) weedkilling efficacy grade” value is recorded as 5 (weed kill ratio 90% or more, (practically complete withering)). For the same compound, in series [7] (treatment dosage 252 g/ha), the “C: oval-leafed pondweed, weed kill grade” value is on record as 5 (weed kill ratio 90% or more, (practically complete withering)).

With `CC(C)(C(=O)Nc1cccc(OC(F)F)n1)N1COCN(c2ccccc2)C1=O` [A-2-54], the “A: barnyard grass, weed kill grade” value in series [1] (treatment dosage 320 g/ha) is 5 (weed kill ratio 90% or more, (practically complete withering)). Moreover, the “a: transplanted rice, effect” value in series [2] (treatment dosage 320 g/ha) is recorded as 1 (weed kill ratio 5% or more, less than 20%). In addition, the “A (barnyard grass) weedkilling efficacy grade” value in series [3] (treatment dosage 320 g/ha) is recorded as 3 (weed kill ratio 40% or more, less than 70%). In series [4] (treatment dosage 320 g/ha), the “B: bulrush, weed kill grade” value is given as 5 (weed kill ratio 90% or more, (practically complete withering)). Moreover, the “C (oval-leafed pondweed) weedkilling efficacy grade” value in series [5] (treatment dosage 320 g/ha) was 3 (weed kill ratio 40% or more, less than 70%). Further, the “B (bulrush) weedkilling efficacy grade” value in series [6] (treatment dosage 320 g/ha) is recorded as 4 (weed kill ratio 70% or more, less than 90%). Also, the “C: oval-leafed pondweed, weed kill grade” value in series [7] (treatment dosage 320 g/ha) is given as 4 (weed kill ratio 70% or more, less than 90%).
